Measured values taken from patent publication US20020013300A1, “Methods for improving size and appearance of a wound” (Avocet Polymer Technologies, Inc., priority 2000, published 2002).

Key:
Type in all cases: in vivo, human patient
[1] = system: post-operative caesarean section scar; assay: Example 5, Patient one: treatment of an itchy caesarean section scar
Description: The patient's chief complaint was a burning itchy sensation in a closed post-operative caesarean section scar. The patient underwent a medical history and physical examination. On examination, an 18 cm irritated lower abdominal vertical healed incision was noted, with evidence of excoriation. […] To avoid the use of adhesives, a control top stretch panty was used to hold the gel—salicylic acid combination in place. Gel plus salicylic acid co-administration was monitored by a daily patient diary. Photographs and patient self report were followed to assess treatment results. Itching complaints were followed using a 10 point itching scale. Pre-treatment itching scale was entered as 6, with the comment that itching bothered the patient “severely, badly.” RESULTS: Compliance with treatment regimen was documented daily. […] On examination, the scar contours appeared to have become more regular and scar color faded.

post-operative scar = assay: Example 4, Patient two: treatment of a raised post-operative leg scar
Experimental: The patient's chief complaint was difficulty sleeping or resting because of a post-operative orthopoedic right leg scar that was irritated and raised. The patient underwent a medical history and physical examination. Notable medication use was a 325 mg tablet of acetylsalicylic acid orally administered to prevent thrombo-embolic post-operative complications. On examination, a 15 cm raised erythematous post-operative scar of 15 cm length and approximately 3 mm width was noted, with exquisite sensitivity to examination and evidence of excoriation. At the time of exam, the patient denied itching. […] To avoid the use of adhesives, an ace wrap bandage was used to hold the gel—salicylic acid combination in place. Gel plus salicylic acid co-administration was monitored by a daily patient diary. Photographs and patient self report were used to assess treatment results. Itching complaints were followed using a 10 point itching scale. Pre-treatment itching scale was entered as 0, reflecting onset of aspirin use prior therapy. RESULTS: Compliance with treatment regimen was documented daily. […] Itching symptoms were reported at 0.

hypertrophic scar [2] = assay: Example 2, Patient three: treatment of a tender hypertrophic facial scar; conditions: 7 weeks
Description: The patient's chief complaint was irritation with daily grooming and itching from scars located on the face. The patient underwent a medical history and physical examination. […] Clinical progress was followed using photographic and ultrasound imaging as well as a patient self-report. […] Color changes were documented by photographs. Ultrasound images documented the scar size change.

hypertrophic scar [3] = assay: Example 3, Patient 25: treatment of an irritated hypertrophic forearm scar
Experimental: The patient's chief complaint was an irritated scar of the forearm for more than two years. The patient underwent a medical history and physical examination. On examination, a raised irregularly contoured errythematous hypertrophic scar was observed. Materials and Methods: After review of clinical options, the patient was prescribed nabumetone for 4 weeks. […] The combination of nabumetone and hydrogel was used for 15-18 hours each day for a period of 8 weeks. Clinical progress was followed using photographic imaging as well as patient self-report.

[4] = 2% salicylic acid under hydrogel
[5] = 2% salicylic acid under hydrogel, 12 weeks
[6] = nabumetone, then nabumetone + hydrogel 8 weeks

In the case of `O=C(O)c1ccccc1O` [salicylic acid], the “redness and local irritation at scar site (photographs)” value ([1]; 2% salicylic acid topically under AVOGEL hydrogel 15-18 h/day, 12 weeks) is reported as “reduced redness and local irritation”, the “evidence of itching or irritation on examination” value [1, 4] is reported as “No evidence of itching or irritation” and the “scar color on examination” value [1, 4] is reported as “faded”. For the same molecule, the “scar contours on examination” value [1, 4] was “more regular”, the “itching symptoms (itching scale)” value ([1]; 10 point scale, 4th week of treatment, pre-treatment 6) was 3 and the “scar irritation and pruritis” value ([1]; end of treatment after 20 weeks) was “reduced to infrequent”. The “shortened measure of the scar, scar contracture (photographs)” value (post-operative scar; 2% salicylic acid topically under AVOGEL hydrogel 15-18 h/day, 12 weeks, patient also on oral acetylsalicylic acid 325 mg) was 25%, the “evidence of itching or irritation on examination” value (post-operative scar; [5]) was “No evidence of itching or irritation” and the patient report (post-operative scar; [5]) was “improved sleep with reduction in scar irritation”. The “scar color on examination” value (post-operative scar; [5]) was “lighter than in pre-treatment”, the “scar contours on examination” value (post-operative scar; [5]) was “flattened” and the “itching symptoms (itching scale)” value (post-operative scar; 10 point scale, pre-treatment entered as 0 (aspirin use prior to therapy)) was 0.
For `COc1ccc2cc(CCC(C)=O)ccc2c1` [nabumetone, 4-(6-methoxy-2-naphthalenyl)-2-butanone], the patient self-report (hypertrophic scar [2]; nabumetone + hydrogel) was “improved comfort”, the “redness and tenderness on exam” value (hypertrophic scar [2]; nabumetone + hydrogel) was “less redness and tenderness” and the “scar color (photographs)” value (hypertrophic scar [2]; nabumetone + hydrogel) was “revert to a color tone more closely matching adjacent skin”. The “reduction in scar size (examination, ultrasound)” value (hypertrophic scar [2]; oral nabumetone 250-500 mg daily co-administered with AVOGEL hydrogel sheeting 15-18 h/day) was 50%, the irregular contours (hypertrophic scar [3]; [6]) was “faded” and the patient self-report (hypertrophic scar [3]; [6]) was “improved comfort”. For the same molecule, the “scar color on examination” value (hypertrophic scar [3]; [6]) was “reverted in color to skin tones closely matching adjacent skin”, the “scar height on examination” value (hypertrophic scar [3]; oral nabumetone 250 mg daily 4 weeks, then with AVOGEL hydrogel sheeting 15-18 h/day for 8 weeks) was “became flatter” and the “scar visibility on photographic documentation” value (hypertrophic scar [3]; treatment day 60) was “not observable”.
